From patent publication US10035778B2, “Meta-azacyclic amino benzoic acid derivatives as pan integrin antagonists” (Saint Louis University, priority 2015, dated 2018)

Legend:
Format in all cases: binding
[1] = target: Recombinant human integrin αvβ8 (Homo sapiens (Human), UniProt P06756+P26012); assay: Solid Phase Receptor Assay (SPRA) for αvβ8 function; settings: LAP-coated plate
Protocol: 6. Solid Phase Receptor Assay (SPRA) for αvβ8 Function
Recombinant human LAP protein (R&D Systems, Inc, 246-LP) diluted to 0.5 μg/mL in TBS+ buffer (25 mM Tris pH 7.4, 137 mM NaCl, 2.7 mM KCl, 1 mM CaCl2, 1 mM MgCl2, 1 mM MnCl2) was added to wells (50 μl/well) of a 96-well half-well transparent microtiter plate (Greiner 675061), and incubated overnight at 4° C. Wells were washed 3 times with 150 μL TBS+ and 150 μL of blocking buffer (TBS+ with 1% bovine serum albumin, Sigma A7906) were added. The plate was incubated for 1 hr at 37° C. and then washed 3× with TBS+. Recombinant human integrin αvβ8 (R&D Systems, 4135-AV) was diluted to 0.1 μg/mL in TBS+/0.1% bovine serum albumin. Compounds were diluted 1:100 into the integrin solution and 50 μL added to empty wells of the washed LAP-coated plate according to a standard template with each sample repeated in triplicate. After incubation for two hours at room temperature, the plate was washed 3× with 150 μL of TBS+. To each well, 50 μL of biotinylated anti-αv antibody (R&D Systems, BAF1219) at 1 μg/mL in TBS+/0.1% BSA were added and the plate was covered and incubated for 1 hr at room temperature. After washing the plate 3× with 150 μL of TBS+ buffer, 50 μL of streptavidin-conjugated horseradish peroxidase (R&D Systems, DY998) diluted in TBS+ blocking buffer were added to the wells and the plate incubated for 20 min at room temperature. The plate was washed 3× with TBS+ followed by 50 μL of TMB substrate (Sigma T4444) added to each well and the plate incubated for 20 min at room temperature. Plates were read by colorimetric detection at 650 nm wavelength using a Tecan Safire II plate reader. Concentration-response curves were constructed by non-linear regression (best fit) analysis, and IC50 values were calculated for each compound.

[2] = target: Recombinant human integrin α8β1 (Homo sapiens (Human), UniProt P05556+P53708); assay: Solid Phase Receptor Assay (SPRA) for α8β1 function; settings: mouse nephronectin-coated plate
Sequence of Recombinant human integrin α8β1 (P53708 39-1012): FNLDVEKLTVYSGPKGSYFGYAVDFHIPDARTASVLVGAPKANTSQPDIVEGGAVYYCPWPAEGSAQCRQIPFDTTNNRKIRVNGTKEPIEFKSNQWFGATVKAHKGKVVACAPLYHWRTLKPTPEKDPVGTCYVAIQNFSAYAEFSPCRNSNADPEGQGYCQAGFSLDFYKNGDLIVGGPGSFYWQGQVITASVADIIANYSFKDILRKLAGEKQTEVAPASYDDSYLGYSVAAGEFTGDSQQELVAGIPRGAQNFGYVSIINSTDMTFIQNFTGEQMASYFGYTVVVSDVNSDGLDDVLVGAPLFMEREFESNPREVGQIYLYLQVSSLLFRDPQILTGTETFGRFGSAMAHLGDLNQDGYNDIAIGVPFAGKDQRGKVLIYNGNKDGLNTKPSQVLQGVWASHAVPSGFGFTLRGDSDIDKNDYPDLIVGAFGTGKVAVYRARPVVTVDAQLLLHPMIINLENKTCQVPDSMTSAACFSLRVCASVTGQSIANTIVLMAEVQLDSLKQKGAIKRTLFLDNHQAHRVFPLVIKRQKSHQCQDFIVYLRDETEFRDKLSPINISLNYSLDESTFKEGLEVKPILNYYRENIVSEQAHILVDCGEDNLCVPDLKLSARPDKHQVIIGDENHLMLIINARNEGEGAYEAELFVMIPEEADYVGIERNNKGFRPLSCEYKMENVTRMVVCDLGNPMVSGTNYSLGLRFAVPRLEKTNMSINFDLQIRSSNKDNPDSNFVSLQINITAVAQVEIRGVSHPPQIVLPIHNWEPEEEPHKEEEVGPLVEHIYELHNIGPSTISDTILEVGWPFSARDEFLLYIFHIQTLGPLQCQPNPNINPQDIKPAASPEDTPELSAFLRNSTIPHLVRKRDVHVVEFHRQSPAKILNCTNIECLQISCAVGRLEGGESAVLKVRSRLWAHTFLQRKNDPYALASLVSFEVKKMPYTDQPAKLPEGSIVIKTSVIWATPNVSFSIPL
Sequence of Recombinant human integrin α8β1 (P05556 21-728): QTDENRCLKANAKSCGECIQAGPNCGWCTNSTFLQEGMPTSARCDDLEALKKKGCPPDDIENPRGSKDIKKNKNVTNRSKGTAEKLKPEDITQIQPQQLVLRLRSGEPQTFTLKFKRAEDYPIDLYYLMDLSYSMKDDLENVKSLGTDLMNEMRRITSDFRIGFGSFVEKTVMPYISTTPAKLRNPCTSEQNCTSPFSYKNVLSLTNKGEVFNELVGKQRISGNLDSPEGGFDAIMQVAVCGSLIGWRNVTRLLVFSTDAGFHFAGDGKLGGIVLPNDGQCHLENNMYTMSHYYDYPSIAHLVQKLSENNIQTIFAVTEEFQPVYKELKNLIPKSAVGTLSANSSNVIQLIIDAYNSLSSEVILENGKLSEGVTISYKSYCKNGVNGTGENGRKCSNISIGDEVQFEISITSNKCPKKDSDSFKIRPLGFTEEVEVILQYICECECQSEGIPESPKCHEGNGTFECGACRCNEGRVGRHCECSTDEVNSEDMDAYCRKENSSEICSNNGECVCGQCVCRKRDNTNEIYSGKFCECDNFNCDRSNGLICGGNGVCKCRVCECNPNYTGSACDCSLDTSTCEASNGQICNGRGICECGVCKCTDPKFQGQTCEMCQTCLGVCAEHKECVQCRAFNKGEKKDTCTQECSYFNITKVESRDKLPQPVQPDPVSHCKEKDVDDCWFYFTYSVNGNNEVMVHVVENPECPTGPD
Protocol: 7. Solid Phase Receptor Assay (SPRA) for α8β1 Function
Recombinant mouse nephronectin protein (R&D Systems, Inc, 4298-NP) diluted to 1 μg/mL in TBS+ buffer (25 mM Tris pH 7.4, 137 mM NaCl, 2.7 mM KCl, 1 mM CaCl2, 1 mM MgCl2, 1 mM MnCl2) was added to wells (50 μl/well) of a 96-well half-well transparent microtiter plate (Greiner 675061), and incubated overnight at 4° C. Wells were washed 3 times with 150 μL TBS+ and 150 μL of blocking buffer (TBS+ with 1% bovine serum albumin, Sigma A7906) were added. The plate was incubated for 1 hr at 37° C. and then washed 3× with TBS+. Recombinant human integrin α8β1 (R&D Systems, pre-launch) was diluted to 0.25 μg/mL in TBS+/0.1% bovine serum albumin. Compounds were diluted 1:100 into the integrin solution and 50 μL added to empty wells of the washed nephronectin-coated plate according to a standard template with each sample repeated in triplicate. After incubation for two hours at room temperature, the plate was washed 3× with 150 μL of TBS+. To each well, 50 μL of biotinylated anti-β antibody (R&D Systems, BAF1778) at 0.5 μg/mL in TBS+/0.1% BSA were added and the plate was covered and incubated for 1 hr at room temperature. After washing the plate 3× with 150 μL of TBS+ buffer, 50 μL of streptavidin-conjugated horseradish peroxidase (R&D Systems, DY998) diluted in TBS+ blocking buffer were added to the wells and the plate incubated for 20 min at room temperature. The plate was washed 3× with TBS+ followed by 50 μL of TMB substrate (Sigma T4444) added to each well and the plate incubated for 20 min at room temperature. Plates were read by colorimetric detection at 650 nm wavelength using a Tecan Safire II plate reader. Concentration-response curves were constructed by non-linear regression (best fit) analysis, and IC50 values were calculated for each compound.

[3] = target: Recombinant human integrin αvβ6 (Homo sapiens (Human), UniProt P06756+P18564); assay: Solid Phase Receptor Assay (SPRA) for αvβ6 function; settings: LAP-coated plate
Sequence of Recombinant human integrin αvβ6 (P06756 31-992): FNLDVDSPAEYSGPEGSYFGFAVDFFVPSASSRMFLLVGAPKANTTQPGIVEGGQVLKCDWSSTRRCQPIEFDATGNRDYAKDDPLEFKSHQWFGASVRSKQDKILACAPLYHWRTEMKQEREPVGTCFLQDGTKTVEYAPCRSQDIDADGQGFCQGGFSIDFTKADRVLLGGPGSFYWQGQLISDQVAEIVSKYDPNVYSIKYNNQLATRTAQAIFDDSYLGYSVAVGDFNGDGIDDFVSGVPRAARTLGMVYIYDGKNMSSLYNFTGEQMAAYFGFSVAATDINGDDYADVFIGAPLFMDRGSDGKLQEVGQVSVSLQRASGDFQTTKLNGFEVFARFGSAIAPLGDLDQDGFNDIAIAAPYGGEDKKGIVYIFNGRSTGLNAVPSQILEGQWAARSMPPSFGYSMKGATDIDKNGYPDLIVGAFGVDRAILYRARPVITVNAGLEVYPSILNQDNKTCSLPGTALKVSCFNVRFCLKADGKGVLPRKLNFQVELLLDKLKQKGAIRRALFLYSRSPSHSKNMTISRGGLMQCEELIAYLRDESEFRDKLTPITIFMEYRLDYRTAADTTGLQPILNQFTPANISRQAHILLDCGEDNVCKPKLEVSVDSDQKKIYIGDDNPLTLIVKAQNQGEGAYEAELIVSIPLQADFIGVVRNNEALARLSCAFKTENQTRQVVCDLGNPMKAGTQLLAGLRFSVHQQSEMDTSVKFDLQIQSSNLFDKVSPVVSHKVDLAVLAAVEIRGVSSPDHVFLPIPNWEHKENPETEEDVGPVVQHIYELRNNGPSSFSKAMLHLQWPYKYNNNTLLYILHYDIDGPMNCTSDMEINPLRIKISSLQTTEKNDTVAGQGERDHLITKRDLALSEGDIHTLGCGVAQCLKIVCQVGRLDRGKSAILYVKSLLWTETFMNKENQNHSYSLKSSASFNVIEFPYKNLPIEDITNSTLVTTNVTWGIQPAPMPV
Sequence of Recombinant human integrin αvβ6 (P18564 22-707): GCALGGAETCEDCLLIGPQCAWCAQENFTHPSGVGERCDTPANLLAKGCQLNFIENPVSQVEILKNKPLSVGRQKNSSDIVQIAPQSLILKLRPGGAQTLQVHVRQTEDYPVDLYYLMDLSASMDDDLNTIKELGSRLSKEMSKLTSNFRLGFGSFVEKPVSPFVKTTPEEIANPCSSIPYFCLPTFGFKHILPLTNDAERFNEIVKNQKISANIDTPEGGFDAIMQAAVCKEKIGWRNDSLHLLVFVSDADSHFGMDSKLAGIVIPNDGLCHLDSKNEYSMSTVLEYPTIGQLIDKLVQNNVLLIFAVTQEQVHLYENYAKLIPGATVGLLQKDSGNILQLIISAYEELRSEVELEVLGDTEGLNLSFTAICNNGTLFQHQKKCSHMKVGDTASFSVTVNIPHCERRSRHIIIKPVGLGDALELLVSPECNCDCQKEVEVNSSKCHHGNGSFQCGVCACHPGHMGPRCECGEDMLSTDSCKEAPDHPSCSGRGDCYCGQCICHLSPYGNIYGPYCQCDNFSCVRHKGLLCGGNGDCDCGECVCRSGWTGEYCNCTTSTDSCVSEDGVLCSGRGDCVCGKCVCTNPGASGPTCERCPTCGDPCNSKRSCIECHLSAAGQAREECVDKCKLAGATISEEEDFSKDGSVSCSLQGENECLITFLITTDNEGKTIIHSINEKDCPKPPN
Protocol: 5. Solid Phase Receptor Assay (SPRA) for αvβ6 Function
Recombinant human LAP (R&D Systems, 246-LP) diluted to 0.25 μg/mL in TBS+ buffer (25 mM Tris pH 7.4, 137 mM NaCl, 2.7 mM KCl, 1 mM CaCl2, 1 mM MgCl2, 1 mM MnCl2) was added to wells (50 μL/well) of a 96-well half-well transparent microtiter plate (Greiner 675061) and incubated overnight at 4° C. Wells were washed 3 times with 150 μL TBS+, and 150 μL of blocking buffer (TBS+ with 1% bovine serum albumin, Sigma A7906) were added. The plate was incubated for 1 hr at 37° C., and then washed 3× with TBS+ buffer. Recombinant human integrin αvβ6 (R&D Systems, 3817-AV) was diluted to 0.1 μg/mL in TBS+/0.1% bovine serum albumin. Compounds were diluted 1:100 into the integrin solution and then 50 μL added to empty wells of the washed LAP-coated plate according to a standard template with each sample repeated in triplicate. After incubation for two hours at room temperature, the plate was washed 3× with 150 μL of TBS+ buffer. To each well, 50 μL of biotinylated anti-αv antibody (R&D Systems, BAF1219) at 0.5 μg/mL in TBS+/0.1% BSA were added and the plate was covered and incubated for 1 hr at room temperature. After washing the plate 3× with 150 μL of TBS+ buffer, 50 μL of streptavidin-conjugated horseradish peroxidase (R&D Systems, DY998) diluted in TBS+ blocking buffer were added to the wells and the plate incubated for 20 min at room temperature. The plate was washed 3× with TBS+ buffer followed by 50 μL of TMB substrate (Sigma T4444) added to each well and the plate incubated for 20 min at room temperature. Plates were read by colorimetric detection at 650 nm wavelength using a Tecan Safire II plate reader. Concentration-response curves were constructed by non-linear regression (best fit) analysis, and IC50 values were calculated for each compound.

Sequence of Recombinant human integrin αvβ8 (P06756 31-992): as the sequence (P06756 31-992) above
Sequence of Recombinant human integrin αvβ8 (P26012 43-684): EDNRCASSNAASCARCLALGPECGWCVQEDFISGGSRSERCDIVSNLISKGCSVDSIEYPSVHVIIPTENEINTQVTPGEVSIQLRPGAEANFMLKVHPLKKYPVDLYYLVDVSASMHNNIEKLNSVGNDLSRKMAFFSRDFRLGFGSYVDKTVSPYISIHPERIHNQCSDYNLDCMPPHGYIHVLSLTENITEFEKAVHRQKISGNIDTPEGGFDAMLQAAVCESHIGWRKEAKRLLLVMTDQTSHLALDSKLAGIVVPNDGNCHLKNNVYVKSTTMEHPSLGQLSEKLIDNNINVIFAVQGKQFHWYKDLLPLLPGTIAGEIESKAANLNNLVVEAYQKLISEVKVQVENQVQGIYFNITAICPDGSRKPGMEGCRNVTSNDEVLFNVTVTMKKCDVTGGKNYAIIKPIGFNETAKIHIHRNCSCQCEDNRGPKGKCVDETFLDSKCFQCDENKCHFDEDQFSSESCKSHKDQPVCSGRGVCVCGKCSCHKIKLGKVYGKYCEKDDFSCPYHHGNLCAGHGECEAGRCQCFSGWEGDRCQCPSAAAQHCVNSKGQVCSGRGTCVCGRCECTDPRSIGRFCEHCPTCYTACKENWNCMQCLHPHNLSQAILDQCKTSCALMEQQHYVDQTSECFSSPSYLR

Q: What does the source list for `O=C(O)C[C@H](NC(=O)CNC(=O)c1cc(O)cc(NC2=NCC(O)CN2)c1)c1cc(Cl)cc(OC(F)(F)F)c1` (stereo partly drawn) [Example 16, (3S)-3-[3-chloro-5-(trifluoromethoxy)phenyl)-3-(2-(3-hydroxy-5-((5-hydroxy-1,4,5,6-tetrahydropyrimidin-2-yl)amino)benzamido)acetamido)propanoic acid]?
A: IC50 [1]: 0.3 ± 0.1 nM; IC50 [2]: 0.5 nM; IC50 [3]: 0.5 nM

Q: For `O=C(O)C[C@H](NC(=O)CNC(=O)c1cc(O)cc(NC2=NCC(O)CN2)c1)c1cc(Br)cc(OC(F)(F)F)c1` (stereo partly drawn) [Example 17, (3S)-3-(3-bromo-5-(trifluoromethoxy)phenyl)-3-(2-(3-hydroxy-5-((5-hydroxy-1,4,5,6-tetrahydropyrimidin-2-yl)amino)benzamido)acetamido)propanoic acid], which IC50 [1] is on record?
A: 0.3 ± 0.1 nM

Q: And the IC50 [2]?
A: 0.7 nM

Q: What about the IC50 [3] of the same molecule?
A: 0.7 nM

Q: For `O=C(O)C[C@H](NC(=O)CNC(=O)c1cc(O)cc(NC2=NCC(O)CN2)c1)c1cc(Cl)cc(Br)c1O` (stereo partly drawn) [Example C1, reference compound], which IC50 [1] is on record?
A: 3 ± 2 nM

Q: And the IC50 [2]?
A: 8 ± 2 nM

Q: And the IC50 [3]?
A: 2 ± 1 nM

Q: What does the source list for `O=C(O)C[C@H](NC(=O)CNC(=O)c1cc(O)cc(NC2=NCC(O)CN2)c1)c1ccccc1` (stereo partly drawn) [Example C2, reference compound]?
A: IC50 [1]: 5 nM; IC50 [2]: 3 nM; IC50 [3]: > 1000 nM

Q: What does the source list for `O=C(O)CC(NC(=O)CNC(=O)c1cc(O)cc(NC2=NCC(O)CN2)c1)c1cc(Cl)cc(Cl)c1O` (stereo not drawn) [Example C3, reference compound]?
A: IC50 [1]: 2 nM; IC50 [2]: 14 nM; IC50 [3]: 1 nM

Q: What does the source list for `Cc1cc(C)cc(C(CC(=O)O)NC(=O)CNC(=O)c2cccc(NC(=N)N)c2)c1` (stereo not drawn) [Example C4, reference compound]?
A: IC50 [1]: 6 nM; IC50 [2]: 63 nM; IC50 [3]: 2 nM

Q: What does the source list for `N=C(N)Nc1cccc(C(=O)NCC(=O)NC(CC(=O)O)c2ccccc2)c1` (stereo not drawn) [Example C5, reference compound]?
A: IC50 [1]: 66 nM; IC50 [2]: 383 nM; IC50 [3]: 17 ± 2 nM

Q: What does the source list for `Cc1ccc(O)c(C(CC(=O)O)NC(=O)CNC(=O)c2cc(O)cc(NC3=NCC(O)CN3)c2)c1` (stereo not drawn) [Example C6, reference compound]?
A: IC50 [1]: 9 ± 6 nM; IC50 [2]: 17 nM; IC50 [3]: 1 nM

Q: How did the IC50 [1] turn out when `O=C(O)CC(NC(=O)CNC(=O)c1cc(O)cc(NC2=NCC(O)CN2)c1)c1cc(Br)cc(Br)c1O` (stereo not drawn) [Example C7, reference compound] was run?
A: 7 nM

Q: And the IC50 [2]?
A: 26 nM

Q: What about the IC50 [3] of the same molecule?
A: 12 nM

Q: Which results are given for `Cc1ccc(O)c(C(CC(=O)O)NC(=O)CNC(=O)c2cccc(NC(=N)N)c2)c1` (stereo not drawn) [Example C8, reference compound]?
A: IC50 [1]: 18 nM; IC50 [2]: 594 nM; IC50 [3]: 2 nM

Q: Which IC50 [1] does the source give for `N=C(N)Nc1cccc(C(=O)NCC(=O)NC(CC(=O)O)c2cc(F)cc(C(F)(F)F)c2)c1` (stereo not drawn) [Example C9, reference compound] here?
A: 6 ± 3 nM

Q: What about the IC50 [2] of the same molecule?
A: 40 nM

Q: And the IC50 [3]?
A: 1 nM

Q: Which results are given for `Cc1cc(Cl)cc([C@@H](CC(=O)O)NC(=O)CNC(=O)c2cc(O)cc(NC3=NCC(O)CN3)c2)c1O` (stereo partly drawn) [Example C10, reference compound]?
A: IC50 [1]: 5 nM; IC50 [2]: 10 nM; IC50 [3]: 3 nM

Q: How did the IC50 [1] turn out when `Cc1cc(Cl)cc([C@@H](CC(=O)O)NC(=O)CNC(=O)c2cccc(NC3=NCCN3)c2)c1O` [Example C11, reference compound] was run?
A: 11 nM

Q: And the IC50 [2]?
A: 17 nM

Q: What about the IC50 [3] of the same molecule?
A: 4 nM
